What was measured:
CAF-1 = details: thrombin 20 units/ml
Method: Using the following procedure, proteins in primary cultures of human airway myofibroblasts were separated by isoelectric focusing followed by SDS-PAGE and analyzed. Different cultures were used, infra, and two different time points at 1 hour (referred to as “early”) and 6 hours (referred to as “late”) were taken. Parts 6.1.1 to 6.1.14 (inclusive) of the procedure set forth below are hereby designated as the “Reference Protocol”.
Primary cultures of human airway myofibroblasts (Hall IP, Kotlikoff M, Am J Physiol January 1995; 268(1 Pt 1): L1-11, Use of cultured airway myocytes for study of airway smooth muscle; Hirst S J, Eur Respir J April 1996; 9(4): 808-20, Airway smooth muscle cell culture: application to studies of airway wall remodeling and phenotype plasticity in asthma.) were treated by one, or a successive combination of, the following:
thrombin at 20 units/ml (Panettieri R A Jr, Hall I P, Maki C S, Murray R K, Am J Respir Cell Mol Biol August 1995; 13(2):205-16, Alpha-Thrombin increases cytosolic calcium and induces human airway smooth muscle cell proliferation).
(§1) dexamethasone at 1 μM (glucocorticoid).
theophylline 100 μM (Billington C K, Joseph S K, Swan C, Scott M G, Jobson T M, Hall I P, Am J Physiol March 1999; 276(3 Pt 1):L412-9, Modulation of human airway smooth muscle proliferation by type 3 phosphodiesterase inhibition).
Using the protein expression database, matching protein features present in test primary cultures and in control primary cultures were compared.

CAF-25 = assay: 2D electrophoresis fold change of CAF-25 in primary cultures of human airway myofibroblasts; type: cell-based; details: thrombin 20 units/ml
Method: as §1

CAF-24 = assay: 2D electrophoresis fold change of CAF-24 in primary cultures of human airway myofibroblasts; type: cell-based; details: thrombin 20 units/ml, early
Method: as §1

CAF-15 = assay: 2D electrophoresis fold change of CAF-15 in primary cultures of human airway myofibroblasts; type: cell-based; details: thrombin 20 units/ml
Method: as §1

CAF-12 = assay: 2D electrophoresis fold change of CAF-12 in primary cultures of human airway myofibroblasts; type: cell-based; details: thrombin 20 units/ml, early
Method: as §1

CAF-29 = assay: 2D electrophoresis fold change of CAF-29 in primary cultures of human airway myofibroblasts; type: cell-based; details: thrombin 20 units/ml
Method: as §1

CAF-3 = assay: 2D electrophoresis fold change of CAF-3 in primary cultures of human airway myofibroblasts; type: cell-based; details: thrombin 20 units/ml
Method: as §1

CAF-18 = assay: 2D electrophoresis fold change of CAF-18 in primary cultures of human airway myofibroblasts; type: cell-based; details: thrombin 20 units/ml
Method: as §1

CAF-13 = assay: 2D electrophoresis fold change of CAF-13 in primary cultures of human airway myofibroblasts; type: cell-based; details: thrombin 20 units/ml
Method: as §1

CAF-20 = assay: 2D electrophoresis fold change of CAF-20 in primary cultures of human airway myofibroblasts; type: cell-based; details: thrombin 20 units/ml, early
Method: as §1

CAF-22 = assay: 2D electrophoresis fold change of CAF-22 in primary cultures of human airway myofibroblasts; type: cell-based; details: thrombin 20 units/ml, early
Method: as §1

CAF-34 = assay: 2D electrophoresis fold change of CAF-34 in primary cultures of human airway myofibroblasts; type: cell-based; details: thrombin 20 units/ml
Method: as §1

CAF-33 = assay: 2D electrophoresis fold change of CAF-33 in primary cultures of human airway myofibroblasts; type: cell-based; details: thrombin 20 units/ml, late
Method: as §1

CAF-35 = assay: 2D electrophoresis fold change of CAF-35 in primary cultures of human airway myofibroblasts; type: cell-based; details: thrombin 20 units/ml, late
Method: as §1

CAF-2 = assay: 2D electrophoresis fold change of CAF-2 in primary cultures of human airway myofibroblasts; type: cell-based; details: thrombin 20 units/ml
Method: as §1

CAF-21 = assay: 2D electrophoresis fold change of CAF-21 in primary cultures of human airway myofibroblasts; type: cell-based; details: thrombin 20 units/ml
Method: as §1

CAF-5 = assay: 2D electrophoresis fold change of CAF-5 in primary cultures of human airway myofibroblasts; type: cell-based; details: thrombin 20 units/ml
Method: as §1

CAF-19 = assay: 2D electrophoresis fold change of CAF-19 in primary cultures of human airway myofibroblasts; type: cell-based; details: thrombin 20 units/ml, late
Method: as §1

Compound: C[C@@H]1C[C@H]2[C@@H]3CCC4=CC(=O)C=C[C@]4(C)[C@@]3(F)[C@@H](O)C[C@]2(C)[C@@]1(O)C(=O)CO [Dexamethasone, dexamethasone]
- Fold change following 1 h thrombin and 1 h Dexamethasone relative to cells treated with thrombin alone (CAF-1; dexamethasone 1 μM, early): 4.713
- Fold change following 1 h thrombin and 1 h Dexamethasone relative to cells treated with thrombin alone (CAF-25; dexamethasone 1 μM, early): 5.245
- Fold change following 1 h thrombin and 1 h Dexamethasone relative to cells treated with thrombin alone (CAF-24; dexamethasone 1 μM): 75.754
- Fold change following 1 h thrombin and 1 h Dexamethasone relative to cells treated with thrombin alone (CAF-15; dexamethasone 1 μM, early): 4.619
- Fold change following 6 h thrombin and 7 h Dexamethasone relative to cells treated with thrombin alone (CAF-15; dexamethasone 1 μM, late): −2.423
- Fold change following 1 h thrombin and 1 h Dexamethasone relative to cells treated with thrombin alone (CAF-12; dexamethasone 1 μM): 21.529
- Fold change following 6 h thrombin and 7 h Dexamethasone relative to cells treated with thrombin alone (CAF-29; dexamethasone 1 μM, late): −2.142
- Fold change following 1 h thrombin and 1 h Dexamethasone relative to cells treated with thrombin alone (CAF-3; dexamethasone 1 μM, early): 2.438
- Fold change following 1 h thrombin and 1 h Dexamethasone relative to cells treated with thrombin alone (CAF-18; dexamethasone 1 μM, early): 8.553
- Fold change following 6 h thrombin and 7 h Dexamethasone relative to cells treated with thrombin alone (CAF-18; dexamethasone 1 μM, late): −15.966
- Fold change following 1 h thrombin and 1 h Dexamethasone relative to cells treated with thrombin alone (CAF-13; dexamethasone 1 μM, early): 5.677
- Fold change following 1 h thrombin and 1 h Dexamethasone relative to cells treated with thrombin alone (CAF-20; dexamethasone 1 μM): 20.554
- Fold change following 1 h thrombin and 1 h Dexamethasone relative to cells treated with thrombin alone (CAF-22; dexamethasone 1 μM): −2.909

Compound: thrombin
- Fold change following 1 h thrombin, relative to untreated cells (CAF-34; early): 2.741
- Fold change following 6 h thrombin, relative to untreated cells (CAF-34; late): 5.005
- Fold change following 1 h thrombin, relative to untreated cells (CAF-1; early): −4.393
- Fold change following 6 h thrombin, relative to untreated cells (CAF-1; late): 2.463
- Fold change following 6 h thrombin, relative to untreated cells (CAF-33): −4.459
- Fold change following 6 h thrombin, relative to untreated cells (CAF-35): −3.705
- Fold change following 1 h thrombin, relative to untreated cells (CAF-25; early): −8.122
- Fold change following 6 h thrombin, relative to untreated cells (CAF-25; late): −4.750
- Fold change following 1 h thrombin, relative to untreated cells (CAF-24): −332.863
- Fold change following 1 h thrombin, relative to untreated cells (CAF-15; early): −14.045
- Fold change following 6 h thrombin, relative to untreated cells (CAF-15; late): 3.037
- Fold change following 1 h thrombin, relative to untreated cells (CAF-12): −51.041
- Fold change following 1 h thrombin, relative to untreated cells (CAF-2; early): 7.832
- Fold change following 6 h thrombin, relative to untreated cells (CAF-2; late): 14.593
- Fold change following 1 h thrombin, relative to untreated cells (CAF-21; early): −4.110
- Fold change following 6 h thrombin, relative to untreated cells (CAF-21; late): 4.186
- Fold change following 1 h thrombin, relative to untreated cells (CAF-29; early): 2.597
- Fold change following 6 h thrombin, relative to untreated cells (CAF-29; late): 2.169
- Fold change following 1 h thrombin, relative to untreated cells (CAF-3; early): −2.976
- Fold change following 6 h thrombin, relative to untreated cells (CAF-3; late): 2.120
- Fold change following 1 h thrombin, relative to untreated cells (CAF-5; early): −3.486
- Fold change following 6 h thrombin, relative to untreated cells (CAF-5; late): −2.846
- Fold change following 1 h thrombin, relative to untreated cells (CAF-18; early): −19.780
- Fold change following 6 h thrombin, relative to untreated cells (CAF-18; late): 16.517
- Fold change following 1 h thrombin, relative to untreated cells (CAF-13; early): −2.425
- Fold change following 6 h thrombin, relative to untreated cells (CAF-13; late): 3.292
- Fold change following 6 h thrombin, relative to untreated cells (CAF-19): −2.815
- Fold change following 1 h thrombin, relative to untreated cells (CAF-20): −16.512
- Fold change following 1 h thrombin, relative to untreated cells (CAF-22): 1.733

Compound: Cn1c(=O)c2[nH]cnc2n(C)c1=O [theophylline]
- Fold change following 1 h thrombin and 1 h theophylline relative to cells treated with thrombin alone (CAF-1; theophylline 100 μM, early): 3.518
- Fold change following 6 h thrombin and 7 h theophylline relative to cells treated with thrombin alone (CAF-1; theophylline 100 μM, late): −2.122
- Fold change following 6 h thrombin and 6 h theophylline relative to cells treated with thrombin alone (CAF-33; theophylline 100 μM): 2.031
- Fold change following 6 h thrombin and 6 h theophylline relative to cells treated with thrombin alone (CAF-35; theophylline 100 μM): 2.182
- Fold change following 1 h thrombin and 1 h theophylline relative to cells treated with thrombin alone (CAF-25; theophylline 100 μM, early): 10.216
- Fold change following 6 h thrombin and 6 h theophylline relative to cells treated with thrombin alone (CAF-25; theophylline 100 μM, late): 19.320
- Fold change following 1 h thrombin and 1 h theophylline relative to cells treated with thrombin alone (CAF-24; theophylline 100 μM): 19.892
- Fold change following 1 h thrombin and 1 h theophylline relative to cells treated with thrombin alone (CAF-15; theophylline 100 μM, early): 16.824
- Fold change following 6 h thrombin and 7 h theophylline relative to cells treated with thrombin alone (CAF-15; theophylline 100 μM, late): −2.077
- Fold change following 1 h thrombin and 1 h theophylline relative to cells treated with thrombin alone (CAF-12; theophylline 100 μM): 39.410
- Fold change following 1 h thrombin and 1 h theophylline relative to cells treated with thrombin alone (CAF-2; theophylline 100 μM, early): 4.912
- Fold change following 1 h thrombin and 1 h theophylline relative to cells treated with thrombin alone (CAF-5; theophylline 100 μM, early): 2.306
- Fold change following 1 h thrombin and 1 h theophylline relative to cells treated with thrombin alone (CAF-18; theophylline 100 μM, early): 26.692
- Fold change following 6 h thrombin and 7 h theophylline relative to cells treated with thrombin alone (CAF-18; theophylline 100 μM, late): 2.839
- Fold change following 1 h thrombin and 1 h theophylline relative to cells treated with thrombin alone (CAF-13; theophylline 100 μM, early): 4.288
- Fold change following 6 h thrombin and 6 h theophylline relative to cells treated with thrombin alone (CAF-19; theophylline 100 μM): 2.800
- Fold change following 1 h thrombin and 1 h theophylline relative to cells treated with thrombin alone (CAF-20; theophylline 100 μM): 29.086
- Fold change following 1 h thrombin and 1 h theophylline relative to cells treated with thrombin alone (CAF-22; theophylline 100 μM): −2.096

Source: US20040043425A1, “Proteins, genes and their use for diagnosis and treatment of chronic asthma” (priority 2000, published 2004)
